Measured values taken from US10660977B2, “Method for treating biological tissue and biological tissue” (WASEDA UNIVERSITY, priority 2012, dated 2020).

Assay: Concentration of trehalose dissolved in PBS
Assay type: physicochemical
Details: PBS at 37° C.
Experimental: Also, the maximum concentration of trehalose was set to 50% because the concentration of trehalose dissolved in PBS at 37° C. was about 50%.

With `OC[C@H]1O[C@H](O[C@H]2O[C@H](CO)[C@@H](O)[C@H](O)[C@H]2O)[C@H](O)[C@@H](O)[C@@H]1O` [trehalose] as the compound, how does the “concentration of trehalose dissolved in PBS” value read?
Its value is “about 50%”.
